Like-named read-outs stand apart in the source and are kept apart here.
Legend:
Assay in all cases: MIC of compounds alone and combined with antibacterials, broth microdilution (CLSI)
Assay type in all cases: cell-based
[1] = system: Enterobacter cloacae (ECL) isolates; conditions: for MIC: Enterobacter cloacae, ATB alone
How it was run: (§1)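 Log-phase isolates at final 5·10^5 CFU/mL in cation-adjusted Mueller-Hinton broth, incubated 16-20 h at 35° C in ambient air. MIC read visually as lowest concentration preventing growth, for compound alone and for antibacterial at each compound concentration.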

[2] = system: Salmonella typhimurium (STY) isolates
How it was run: as §1

[3] = system: Klebsiella oxytoca (KOX) isolates; conditions: for MIC ATB in combination: AF1 @ 4 μg/mL; for MIC: Klebsiella oxytoca, ATB alone
How it was run: as §1

[4] = system: Providencia rettgeri (PRE) isolates; conditions: for MIC: Providencia rettgeri, ATB alone
How it was run: as §1

[5] = system: Citrobacter freundii (CFR) isolates; conditions: for MIC: Citrobacter freundii
How it was run: as §1

[6] = system: Citrobacter koseri (CKR) isolates; conditions: for MIC ATB in combination: AF1 @ 4 μg/mL; for MIC: Citrobacter koseri, ATB alone
How it was run: as §1

CO/N=C(\C(=O)N[C@@H]1C(=O)N2C(C(=O)O)=C(COC(N)=O)CS[C@H]12)c1ccco1 [FUR, Cefuroxime]
MIC ATB in combination ([1]; ECL 190408, AF1 @ 4 μg/mL): 4 µg/mL | MIC ATB in combination ([1]; ECL 200322, AF1 @ 4 μg/mL): 32 µg/mL | MIC ATB in combination ([1]; ECL 260508, AF1 @ 4 μg/mL): 32 µg/mL | MIC ATB in combination ([1]; ECL P99, AF1 @ 4 μg/mL): 64 µg/mL | MIC ATB in combination ([1]; ECL UFR12, AF1 @ 4 μg/mL): 16 µg/mL | MIC ATB in combination ([1]; ECL UFR60, AF1 @ 4 μg/mL): 64 µg/mL | MIC ATB in combination ([1]; ECL UFR70, AF1 @ 4 μg/mL): 32 µg/mL | MIC ATB in combination ([1]; ECL UFR194, AF1 @ 4 μg/mL): 32 µg/mL | MIC ATB in combination ([1]; ECL UFR200, AF1 @ 4 μg/mL): 16 µg/mL | MIC ([1]; strain ECL UFR197 (TEM-1, CTX-M-15, OXA-1, OXA-48)): > 256 µg/mL | MIC ([1]; strain ECL UFR198 (TEM-1, SHV-12, CTX-M-15, DHA-1, OXA-1, OXA-48)): > 256 µg/mL | MIC ([1]; strain ECL 2185D (OXA-163)): > 256 µg/mL | MIC ([1]; strain ECL 190310 (AmpC)): > 256 µg/mL | MIC ([1]; strain ECL 190408 (TEM-1, CTX-M-15, OXA-1)): > 256 µg/mL | MIC ([1]; strain ECL 200138 (AmpC)): > 256 µg/mL | MIC ([1]; strain ECL 200322 (TEM-1, CTX-M-15, OXA-1)): > 256 µg/mL | MIC ([1]; strain ECL 260033 (AmpC)): > 256 µg/mL | MIC ([1]; strain ECL 260253 (TEM-1, KPC-3)): > 256 µg/mL | MIC ([1]; strain ECL 260323 (AmpC)): > 256 µg/mL | MIC ([1]; strain ECL 260508 (TEM-1, CTX-M-15)): > 256 µg/mL | MIC ([1]; strain ECL NEM146383 (AmpC)): > 256 µg/mL | MIC ([1]; strain ECL P99 (AmpC), read-out: MIC): > 512 µg/mL | MIC ([1]; strain ECL UFR12 (CTX-M-9, OXA-48)): > 256 µg/mL | MIC ([1]; strain ECL UFR13 (TEM-1, SHV-12, CTX-M-9, OXA-48)): > 256 µg/mL | MIC ([1]; strain ECL UFR14 (TEM-1, SHV-12, CTX-M-15, DHA-1, OXA-1, OXA-48)): > 256 µg/mL | MIC ([1]; strain ECL UFR60 (TEM-1, CTX-M-15, KPC-2)): > 256 µg/mL | MIC ([1]; strain ECL UFR70 (TEM-1, CTX-M-15, CMY-2, OXA-1, Porin loss)): > 256 µg/mL | MIC ([1]; strain ECL UFR84 (TEM-1, AmpC, OXA-1)): > 256 µg/mL | MIC ([1]; strain ECL UFR85 (TEM-1, CTX-M-15, AmpC)): > 256 µg/mL | MIC ([1]; strain ECL UFR194 (OXA-48)): 32 µg/mL | MIC ([1]; strain ECL UFR195 (TEM-1, CTX-M-15, OXA-1, OXA-48)): > 256 µg/mL | MIC ([1]; strain ECL UFR196 (TEM-1, CTX-M-15, OXA-1, OXA-48)): > 256 µg/mL | MIC ([1]; strain ECL UFR200 (TEM-1, SHV-12, KPC-2)): > 256 µg/mL | MIC ATB in combination ([1]; strain ECL UFR195, antibacterial combined with AF1 @ 4 μg/mL): 32 µg/mL | MIC ATB in combination ([1]; strain ECL UFR196, antibacterial combined with AF1 @ 4 μg/mL): 64 µg/mL | MIC ATB in combination ([1]; strain ECL UFR197, antibacterial combined with AF1 @ 4 μg/mL): 64 µg/mL | MIC ATB in combination ([2]; STY S3371, AF1 @ 4 μg/mL): 4 µg/mL | MIC ([2]; Salmonella enterica, TYPHIMURIUM, strain STY S3371 (OXA-1), ATB alone): 32 µg/mL | MIC ATB in combination ([3]; KOX UFR21): 16 µg/mL | MIC ATB in combination ([3]; KOX UFR173): 4 µg/mL | MIC ATB in combination ([3]; KOX UFR223): 2 µg/mL | MIC ATB in combination ([3]; KOX UFR224): 2 µg/mL | MIC ([3]; strain KOX UFR21 (TEM-1, CTX-M-15, OXA-48)): > 256 µg/mL | MIC ([3]; strain KOX UFR173 (OXY2-2), read-out: MIC): > 256 µg/mL | MIC ([3]; strain KOX UFR223 (SHV-11, OXA-48), read-out: MIC): 8 µg/mL | MIC ([3]; strain KOX UFR224 (CTX-M-15, OXA-48)): > 256 µg/mL | MIC ATB in combination ([4]; PRE UFR99, AF1 @ 4 μg/mL): >128 µg/mL | MIC ([4]; strain PRE UFR99 (OXA-1, OXA-181)): > 256 µg/mL | MIC ([4]; strain PRE UFR236 (TEM-1, OXA-48), read-out: MIC): 64 µg/mL | MIC ATB in combination ([4]; strain PRE UFR236, antibacterial combined with AF1 @ 4 μg/mL): 8 µg/mL | MIC ATB in combination ([5]; CFR UFR10, AF1 @ 4 μg/mL): 8 µg/mL | MIC ATB in combination ([5]; CFR UFR11, AF1 @ 4 μg/mL): >128 µg/mL | MIC ATB in combination ([5]; CFR UFR83, AF1 @ 4 μg/mL): >128 µg/mL | MIC ATB in combination ([5]; CFR UFR146, AF1 @ 4 μg/mL): 16 µg/mL | MIC ATB in combination ([5]; CFR UFR248, AF1 @ 4 μg/mL): 8 µg/mL | MIC ATB in combination ([5]; CFR UFR249, AF1 @ 4 μg/mL): 8 µg/mL | MIC ATB in combination ([5]; CFR UFR250, AF1 @ 4 μg/mL): 8 µg/mL | MIC [5]: > 256 µg/mL | MIC ([5]; ATB alone, strain CFR UFR253 (TEM-1, SHV-12, OXA-48), read-out: MIC): 32 µg/mL | MIC ([5]; ATB alone, strain CFR UFR254 (VEB-1b, OXA-48, qnrA), read-out: MIC): 32 µg/mL | MIC ([5]; strain CFR UFR10 (OXA-48), ATB alone, read-out: MIC): > 256 µg/mL | MIC ([5]; strain CFR UFR11 (TEM-1, OXA-1, OXA-48), ATB alone, read-out: MIC): > 256 µg/mL | MIC ([5]; strain CFR UFR83 (TEM-3, AmpC), ATB alone, read-out: MIC): > 256 µg/mL | MIC ([5]; strain CFR UFR248 (CTX-M-15), ATB alone, read-out: MIC): > 256 µg/mL | MIC ([5]; strain CFR UFR249 (TEM-1, CTX-M-15), ATB alone, read-out: MIC): > 256 µg/mL | MIC ([5]; strain CFR UFR250 (TEM-1, SHV-28, CTX-M-15), ATB alone, read-out: MIC): > 256 µg/mL | MIC ATB in combination ([5]; strain CFR UFR253, antibacterial combined with AF1 @ 4 μg/mL): 4 µg/mL | MIC ATB in combination ([5]; strain CFR UFR254, antibacterial combined with AF1 @ 4 μg/mL): 2 µg/mL | MIC ATB in combination ([6]; CKO ROU): 32 µg/mL | MIC ATB in combination ([6]; CKO UFR149): 128 µg/mL | MIC ATB in combination ([6]; CKO UFR150): 32 µg/mL | MIC ([6]; strain CKO ROU (TEM-1, SHV-12, CTX-M-15, OXA-1, OXA-48), read-out: MIC): 64 µg/mL | MIC ([6]; strain CKO UFR149 (OXA-48)): > 256 µg/mL | MIC ([6]; strain CKO UFR150 (TEM-1, OXA-48), read-out: MIC): 64 µg/mL

Reference: patent publication US20200017496A1 (priority 2017, published 2020)
